Our source for the IC50 and Activity values is ChEMBL document CHEMBL4808243, “Harmine-inspired design and synthesis of benzo[d]imidazo[2,1-b]thiazole derivatives bearing 1,3,4-oxadiazole moiety as potential tumor suppressors” (Bioorg Med Chem, 2021).

As usually defined, the IC50 is the concentration that inhibits the measured activity by half.

Common to all, as to type: functional, cell-based
For one assay, the system named is NCI-H2228. Briefly: Antiproliferative activity against human EML4-ALK positive H2228 cells assessed as inhibition of cell growth incubated for 72 hrs by MTT assay. The conditions noted are these: NCI-H2228, 72 h. A general note: Tetrazolium assays rely on reduction of a dye to a coloured formazan, in cell work by metabolically active cells.
Assay [1] concerns A549. Briefly: Antiproliferative activity against human A549 cells assessed as inhibition of cell growth incubated for 72 hrs by MTT assay. The conditions noted are these: A549, 72 h.
Assay [2] deals with A549. Briefly: Induction of apoptosis in human A549 cells by flow cytometry analysis. On the technique in general: In flow cytometry, cells or beads pass a laser one at a time.
In assay [3] the test system is A549. Briefly: Inhibition of epithelial-mesenchymal transition in human A549 cells assessed as suppression of Twist 1 expression measured after 24 hrs by Western blot analysis. The conditions noted are these: dose 0.5-2 µM.
The test system of assay [4] is A549. Briefly: Inhibition of epithelial-mesenchymal transition in human A549 cells assessed as suppression of Twist 1 expression at 17 uM measured after 24 hrs by Western blot analysis. In general terms: In western blotting, separated proteins are transferred to a membrane and probed.

Structures are written as SMILES. Calls of active or inactive are those of the source. The calls are words filed in the database; no cut-off is given here.

In the case of `Cc1nc2sc3ccccc3n2c1-c1nnc(CN2CCC(C)CC2)o1`, the IC50 in the assay on NCI-H2228 came out at 23.1 µM; in the assay on A549 [1] it was 12.8 µM.
As to `Cc1nc2sc3ccccc3n2c1-c1nnc(CCN2CCCCC2)o1`, the results for the concentration for half-maximal inhibition (IC50) with NCI-H2228 and in the assay on A549 [1] were 9.8 µM and 2.03 µM, respectively. Besides, the result with A549 [2] was inactive. The Activity result in the assay with A549 [3] is “Dose-Dependent Effect”.
Take `CCN(CC)CCc1nnc(-c2c(C)nc3sc4ccccc4n23)o1`: the IC50 came out at 23.9 µM in the assay on NCI-H2228 and 9.55 µM in the assay with A549 [1].
In the same order, the values of `Cc1nc2sc3ccccc3n2c1-c1nnc(CN2CC(O)C2)o1` are 27.2 µM and 12.3 µM.
The matching figures for `Cc1nc2sc3ccccc3n2c1-c1nnc(CN2CCCCC2)o1`: 19.2 µM and 15.1 µM.
In the case of `CCN(CC)Cc1nnc(-c2c(C)nc3sc4ccccc4n23)o1`, the values for the IC50 in the assay on NCI-H2228 and in the assay on A549 [1] were 21.6 µM and 10.7 µM, respectively.
The matching figures for `Cc1nc2sc3ccccc3n2c1-c1nnc(CCN2CCN(CCO)CC2)o1`: 14 µM and 6.95 µM.
In the same order, the values of `Cc1nc2sc3ccccc3n2c1-c1nnc(CCNCCO)o1` are 16.5 µM and 10.7 µM.
In the same order, the values of `Cc1nc2sc3ccccc3n2c1-c1nnc(CCNC2CCCC2)o1` are 18.6 µM and 15 µM.
Turning to `Cc1nc2sc3ccccc3n2c1-c1nnc(CN(C)C)o1`, the half-inhibitory concentration (IC50) with NCI-H2228 is 15.3 µM; in the assay on A549 [1], 9.26 µM.
In the same order, the values of `Cc1nc2sc3ccccc3n2c1-c1nnc(CNC2CCCC2)o1` are 17.4 µM and 3.92 µM.
Consider `COc1ccc2c(c1)[nH]c1c(C)nccc12` [HARMINE], for which the IC50 in the assay on NCI-H2228 was determined as 31.1 µM; in the assay on A549 [1] it was 17.1 µM. In the assay with A549 [4], the result was Active.
For `Cc1nc2sc3ccccc3n2c1-c1nnc(CCN2CCCC2)o1`, the figures for the half-inhibitory concentration (IC50) in the assay on NCI-H2228 and in the assay with A549 [1] were 23.5 µM and 12.2 µM, respectively.
As to `Cc1nc2sc3ccccc3n2c1-c1nnc(CN2CCCC2)o1`, the IC50 was 26.5 µM in the assay on NCI-H2228 and 7.7 µM in the assay with A549 [1].
In the same order, the values of `CCCN1CCN(Cc2nnc(-c3c(C)nc4sc5ccccc5n34)o2)CC1` are 21.8 µM and 13.7 µM.
For `Cc1nc2sc3ccccc3n2c1-c1nnc(CNCCO)o1`, the IC50 was 17.8 µM in the assay on NCI-H2228 and 8.46 µM with A549 [1].
For the compound `Cc1nc2sc3ccccc3n2c1-c1nnc(CCN(C)C)o1`, the IC50 in the assay on NCI-H2228 was found to be 19 µM; in the assay with A549 [1], 11.9 µM.
In the same order, the values of `Cc1nc2sc3ccccc3n2c1-c1nnc(CCN2CCC(C)CC2)o1` are 13.4 µM and 2.38 µM.
For `CCCN1CCN(CCc2nnc(-c3c(C)nc4sc5ccccc5n34)o2)CC1`, the concentration for half-maximal inhibition (IC50) with NCI-H2228 was found to be 22.2 µM; in the assay on A549 [1] it was 11.1 µM.
The matching figures for `Cc1nc2sc3ccccc3n2c1-c1nnc(CN2CCN(CCO)CC2)o1`: 14.9 µM and 4.41 µM.
The matching figures for `Cc1nc2sc3ccccc3n2c1-c1nnc(CCN2CC(O)C2)o1`: 22.5 µM and 9.63 µM.
In the same order, the values of `Cc1nc2sc3ccccc3n2c1-c1nnc(CCN2CCC(O)CC2)o1` are 15.4 µM and 7.66 µM.
For `Cc1nc2sc3ccccc3n2c1-c1nnc(CN2CCC(O)CC2)o1`, the values for the IC50 in the assay with NCI-H2228 and in the assay with A549 [1] were 12.2 µM and 15 µM, respectively.
